Measurements taken from patent publication US6265423A, “Aromatic polycyclic retinoid-type derivatives, method for preparing same, and use thereof for making pharmaceutical and cosmetic compositions” (priority 1996, dated 2001).

Key:
[1] = test system: ERE-βGlob-Luc, MELN lineage (MCF-7); test: Anti-oestrogenic effect, MELN lineage activated by estradiol; type: cell-based, human
Excerpt: (§1) Certain properties of the retinoids have been determined using more developed cellular models. These models consist of cellular lineages transfected in a stable fashion by recombinant plasmids which place the expression of the gene of the luciferase under the control of different nuclear response elements. […] The tests carried out in duplicate are described below for each of these models.
MCF-7 cells express RARα,γ and RXRα. The transfection of MCF-7 cells by an oestrogen-dependent gene (ERE-βGlob-Luc) has permitted the establishment of the MELN cellular lineage, used to determine the anti-oestrogenic activity of the retinoids. These cells contain the gene of the luciferase under the transcriptional control of the promoter of the βGlobine and of the response element ERE isolated from the gene of chicken vitelogenine A2. The experiments are carried out with MELN cells activated by 10^-9 M estradiol. The level of base activity of the MELN cells is obtained with the anti-oestrogen 1 μM 4-OH-tamoxifen (hydroxytamoxifen).
The effect of the products tested on the cells activated by 10^-9 M estradiol is expressed as a percentage, the level of base activity being deducted.

[2] = test system: AP-1, MTLN lineage (MCF-7); test: Anti-AP-1 effect, MTLN lineage activated by TPA; type: cell-based, human
Procedure: as §1
The anti-factor AP-1 transrepressor effect of retinoids is determined using the MTLN lineage, coming from MCF-7 cells transfected in a stable fashion by a vector p(TRE)3 -tk-Luc which places the expression of the gene of luciferase under the control of […]. TPA activates the AP-1 complex formed from proteins of the family of nuclear proto-oncogenes (c-Jun and c-Fos). […] The experiments are made with the MTLN cells activated by 10^-7 M TPA.
The effect of the compounds on the MTLN cells activated by 10^-7 M TPA is expressed as a percentage. […] The inhibitive properties of the products are calculated after deduction of the base activity of the cells. The percentages reported correspond to a range of inhibitions determined from several experiments.

[3] = test system: human mammary tumoral lineage T-47D; test: Clonogenic test (soft agar), growth of cellular colonies; type: cell-based; conditions: T-47D; for mean number of cellular colonies in relation to control / activity at 0.1 µM / activity at 0.01 µM / activity at 0.001 µM / activity at 0.0001 µM: 21 days, control = 100%; for activity at 0.1 µM / activity at 0.01 µM / activity at 0.001 µM / activity at 0.0001 µM: Homo sapiens, T47D, 504 h, read-out: mean number of cellular colonies in relation to control; for activity at 0.1 µM: 10^-7 M; for effect on growth of cellular colonies (in words): soft agar
Excerpt: The human tumour stem cells are the clonogenic cells which are the origin of the neoplasic cells which constitute a given tumour. These tumour stem cells are responsible for the recidivism process observable after surgical resection of the primary tumours and are also responsible for the formation of metastases. […] At the level of a tumour or of a tumoral cellular lineage, these clonogenic stem cells distinguish themselves from other clonogenic cells of the tumour or of the neoplasic cellular lineage being considered, by the fact that they preserve their ability to proliferate in the absence of any solid support.
This technique is suitable for the culturing in vitro of most of the tumours and tumoral cellular lineages of various histological types. In the context of this test, the neoplastic cells are cultured on a semi-solid culture medium "soft agar" made up of a mixture of agar and agarose. On this selective support, only tumoral stem cells survive and proliferate. […] The morphological characteristics and the growth of the cellular colonies are also a function of the histological type of the tumours being considered.
These culture conditions are also called "anchorage-independent" conditions.
The base medium "MEM 25 MM HEPES" (Minimum Essential Medium, Life Technologies, Belgium) contains Eagle salts but no L-glutamine. This medium is well suited to the growth of a range of varied diploid cells or primary mammal cells. To this medium is then added:
The tumoral cells are maintained in culture in 25 cm^2 falcon dishes (Life Technologies, Belgium). They are then trypsinised and individualised. Their rate of viability is determined by coloration with trypan blue (Sigma, Belgium). It must be greater than 90%. In the case where this condition is kept to, a cellular suspension at the desired concentration is prepared in a solution of agar at 0. 3%. The cells are then seeded between two layers of agar (Sigma, Belgium) and in 35 mm Petri dishes (Life Technologies, Belgium). The base layer is made up of a 0.5% solution of agar and the top layer is made up of a 0.3% solution of agar. The cupules are then positioned and held in an incubator at 37° C. and 5% of CO2. […] After treatment, the cupules are kept in the incubator for 21 days. It is advisable to examine, during the course of the experiment, the appearance and the increase of the cellular colonies. If after 10 days, no colony appears or is developing, the experiment must be repeated. In the contrary case, on the 21st day, 100 μl of an MTT solution (3-(4,5-dimethylthiazol-2-yl)-2,5 diphenyl tetrazolium bromide; Sigma, Belgium) dissolved in the RPMI culture medium (Roswell park Memorial Institute, Life Technologies, Belgium), at the concentration of 1 mg/ml are deposited on the top layer of the group of cupules. The cells are kept in contact with this solution for a minimum of 3 hours at 37° C.
Using an inverted microscope at low magnification, the number of clones whose surface area is greater thar. 100 μm^2 is determined for the group of cupules representing all the different experimental conditions. Then, for each of these experimental conditions, the mean number of cellular colonies±the standard error on the mean (ESM) is calculated.
The mean number of cellular colonies determined for each experimental condition is expressed as a percentage in relation to the control condition made equal to 100%.

[4] = test system: ZR-75-1 human mammary cancer cells; test: MTT test, proliferation of ZR-75-1; type: cell-based; conditions: Homo sapiens, 72 h, control = 100%, read-out: level of proliferation; for activity at 100 µM: ZR-75-1, 10^-4 M; for activity at 1 µM: ZR-75-1, 10^-6 M; for activity at 0.01 µM: ZR-75-1, 10^-8 M
Procedure: (§2) The cells that were cultured came from the ATCC (American Type Culture Collection).
(§3) The cellular lines are kept in culture in a monolayer at 37° C. in closed culture dishes (Nunc. Gibco BRL, Life Technologies, Belgium) containing the minimum essential medium (MEM, Gibco) supplemented with 5% of Foetal Calf Serum, (FCS, Gibco), 0.6 mg/ml of glutamine (Gibco) and a mixture of 200 IU/mi of penicillin (Gibco), 200 μg/ml of streptomycin (Gibco) and 0.1 mg/ml of gentamycin (Gibco). The foetal calf serum is decomplemented for 1 hour at 56° C.
(§4) This test is based on the mitochondrial reduction by living metabolically active cells of the MTT (3-(4,5-dimethylthiazol-2-yl)-2,5-diphenyltetrazolium bromide) of yellowish colour into a blue coloured product, formazan. The quantity of formazan obtained is directly proportional to the number of living cells. After incubation of the cells for 24 hours in microplates with 96 flat bottomed wells, the culture medium is replaced by 100 μl of fresh culture medium containing the drug to be tested.
(§5) The microplates are then incubated for 3 hours at 37° C. and centrifuged for 10 minutes at 400 g (GPR centrifuge, Beckman). The MTT solution is replaced by 100 μl of dimethylsulphoxide (Merck). The microplates are agitated (Vari-Shaker, Dynatech) for 10 minutes.
(§6) In the microplates, the control cells like the treated cells were incubated in a medium without the compounds to be tested for 24 hours. The control cells are incubated in a medium without a drug throughout the whole experiment, while the treated cells are incubated in different media. These media contain the molecule to be tested at various concentrations: 10^-8 M, 10^-6 M and 10^-4 M. All the tests are carried out in 6 duplicates.
(§7) The statistical comparisons are carried out according to the Fisher Test:
(§8) The mean optical density measured for each experimental condition is expressed as a percentage in relation to the laid down control condition being equal to 100%.

[5] = test system: T-47D human mammary cancer cells; test: MTT test, proliferation of T-47D; type: cell-based; conditions: Homo sapiens, T47D, T-47D, 72 h, control = 100%, read-out: level of proliferation; for activity at 100 µM: 10^-4 M; for activity at 1 µM: 10^-6 M; for activity at 0.01 µM: 10^-8 M
Procedure: as §2, §3, §4, §5, §6, §7, §8

[6] = test system: A-427 human pulmonary cancer cells; test: MTT test, proliferation of A-427; conditions: Homo sapiens, A-427, 72 h, read-out: level of proliferation
[7] = test system: A549 human pulmonary cancer cells; test: MTT test, proliferation of A549; type: cell-based; conditions: Homo sapiens, 72 h, control = 100%, read-out: level of proliferation

CC1(C)CCC(C)(C)c2cc(C(=O)Nc3ccc(C(=O)O)cc3)ccc21 [Am580, 4-[(5,6,7,8-tetrahydro-5,5,8,8-tetramethyl-2-naphthalenyl)carboxamido]benzoic acid, reference compound]
inhibition at 0.01 µM ([1]; Homo sapiens, MCF7, 10^-8 M, cells activated by 10^-9 M estradiol, read-out: anti-oestrogenic effect, inhibition): 36 to 51%
anti-oestrogenic effect, inhibition (of the order of) ([1]; MELN, estradiol 10^-9 M): ~40%
inhibition at 0.1 µM ([2]; Homo sapiens, MCF7, 10^-7 M, cells activated by 10^-7 M TPA, range of several experiments, read-out: anti-AP-1 effect, inhibition): 41 to 48%
inhibition at 0.01 µM ([2]; Homo sapiens, MCF7, 10^-8 M, cells activated by 10^-7 M TPA, range of several experiments, read-out: anti-AP-1 effect, inhibition): 40 to 46%

Cc1cc2c(cc1/C=C1/CCc3cc(-c4nnn[nH]4)ccc31)C(C)(C)CCC2(C)C [CB02981]
mean number of cellular colonies in relation to control ([3]; 10^-8 M, 0.01 µM): 48.8 ± 5.3%
mean number of cellular colonies in relation to control ([3]; 10^-9 M, 0.001 µM): 67.6 ± 8.9%
mean number of cellular colonies in relation to control ([3]; 10^-10 M, 0.0001 µM): 80.1 ± 13.2%

CC1=C(/C=C/C(C)=C/C=C/C(C)=C/C(=O)Nc2ccc(O)cc2)C(C)(C)CCC1 [CB05764, reference compound]
activity at 0.1 µM [3]: 18.8%
activity at 0.01 µM ([3]; 10^-8 M): 33.6%
activity at 0.001 µM ([3]; 10^-9 M): 83.3%
activity at 0.0001 µM ([3]; 10^-10 M): 80.3%
effect on growth of cellular colonies (in words) [3]: strongly active at concentration 10^-7 M loses its significant inhibiting activity beyond the concentration of 10^-9 M
activity at 100 µM [4]: 0.6%
activity at 1 µM [4]: 81.9%
activity at 0.01 µM [4]: 97.3%
activity at 100 µM [5]: 0%
activity at 1 µM [5]: 66.4%
activity at 0.01 µM [5]: 82.5%

Cc1cc2c(cc1/C=C1\CCc3cc(C(=O)O)ccc31)C(C)(C)CCC2(C)C [CB40341]
mean number of cellular colonies in relation to control ([3]; 10^-8 M, 0.01 µM): 65.6 ± 9.5%
mean number of cellular colonies in relation to control ([3]; 10^-9 M, 0.001 µM): 90.8 ± 0.8%
mean number of cellular colonies in relation to control ([3]; 10^-10 M, 0.0001 µM): 99.1 ± 9.7%

CC/C(=C(\c1ccccc1)c1ccc(OCCN(C)C)cc1)c1ccccc1 [CB58707, tamoxifen, reference compound]
activity at 0.1 µM [3]: 31.3%
activity at 0.01 µM ([3]; 10^-8 M): 46.9%
activity at 0.001 µM ([3]; 10^-9 M): 35.5%
activity at 0.0001 µM ([3]; 10^-10 M): 56.7%
effect on growth of cellular colonies (in words) [3]: significant inhibition in the growth of these colonies but its activity is not dose dependent

C/C(=C/c1cc2c(cc1C)C(C)(C)CCC2(C)C)c1ccc(-c2nnn[nH]2)cc1 [CB61692]
activity at 0.01 µM ([3]; 10^-8 M): 55.7 ± 2.6%
activity at 0.001 µM ([3]; 10^-9 M): 41.5 ± 5.7%
activity at 0.0001 µM ([3]; 10^-10 M): 90.3 ± 4.7%
activity at 100 µM [4]: 0%
activity at 1 µM [4]: 89.5%
activity at 0.01 µM [4]: 93.2%
activity at 100 µM [5]: 0%
activity at 1 µM [5]: 93.8%
activity at 0.01 µM [5]: 106%
activity at 0.01 µM [6]: 105%
activity at 1 µM [6]: 107%
activity at 100 µM [6]: 0.6%
activity at 100 µM ([7]; A549, 10^-4 M): 0%
activity at 1 µM ([7]; A549, 10^-6 M): 98.2%
activity at 0.01 µM ([7]; A549, 10^-8 M): 106%

C/C(=C/c1ccc2c(c1)C(C)(C)CCC2(C)C)c1cc(C(=O)O)no1 [CB73069]
inhibition ([1]; Homo sapiens, MCF7, 10^-6 M, cells activated by 10^-9 M estradiol): 17 to 21%

CCCCCCCOc1cc2c(cc1/C(C)=C/c1ccc(C(=O)O)cc1)C(C)(C)CCS2(=O)=O [Ro 41-5253, reference compound]
anti-oestrogenic effect (in words) ([1]; estradiol-activated MELN cells): raises the inhibitor effect of Am580 and also of TTNPB
anti-AP-1 effect (in words) ([2]; TPA-activated MTLN cells): does not allow the inhibition induced by TTNPB to be totally lifted
